Results as given in ChEMBL document CHEMBL1201862, “PubChem BioAssay data set” (2004).
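Cultured in 96-well plates, cells were exposed to test compound for 48 hours across five concentrations. Here, GI50 denotes the concentration required for 50% inhibition of growth.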 Calls of active or inactive are those of the source. Cut-off read from the data, not from the text of the source: active = GI50 up to about 1.1 µM and inactive = higher.

Legend:
Assay in all cases: NCI tumour cell line growth inhibition, 48 h
[1] = test system: HL-60
[2] = test system: K562
[3] = test system: SNB-75
[4] = test system: HOP-92
[5] = test system: RPMI-8226
[6] = test system: OVCAR-3
[7] = test system: UACC-257
[8] = test system: COLO 205
[9] = test system: OVCAR-8
[10] = test system: A549
[11] = test system: OVCAR-5
[12] = test system: CAKI-1
[13] = test system: UO-31
[14] = test system: NCI-H23
[15] = test system: CCRF-CEM
[16] = test system: SK-MEL-2
[17] = test system: NCI-H522
[18] = test system: BT-549
[19] = test system: Hs-578T
[20] = test system: RXF 393

SMILES | GI50 [1] | GI50 [2] | GI50 [3] | GI50 [4] | GI50 [5] | GI50 [6] | GI50 [7] | GI50 [8] | GI50 [9] | GI50 [10] | GI50 [11] | GI50 [12] | GI50 [13] | GI50 [14] | GI50 [15] | GI50 [16] | GI50 [17] | GI50 [18] | GI50 [19] | GI50 [20]
C=C(CCC(C(=O)O)C1CCC2(C)C3=C(CCC12C)C1(C)CCC(O)C(C)(C)C1CC3)C(C)C (configuration not stated) | > 10 µM (inactive) | 14.2 µM (inactive) | 58.9 µM (inactive) | 60.8 µM (inactive) | 19.9 µM (inactive) | 45.6 µM (inactive) | 97.5 µM (inactive) | > 100 µM (inactive) | 19.1 µM (inactive) | 17.1 µM (inactive) | > 100 µM (inactive) | > 100 µM (inactive) | > 100 µM (inactive) | 29.6 µM (inactive) | > 10 µM (inactive) | 52 µM (inactive) | 16.6 µM (inactive) | 83.6 µM (inactive) | 77.8 µM (inactive) | –
O=c1oc2ccccc2cc1-c1csc(Nc2cc(Cl)cc(Cl)c2)n1 | > 90.8 µM (inactive) | > 100 µM (inactive) | 2.71 µM (inactive) | > 39 µM (inactive) | > 100 µM (inactive) | 11.5 µM (inactive) | > 100 µM (inactive) | 18 µM (inactive) | 4.11 µM (inactive) | 4.51 µM (inactive) | > 100 µM (inactive) | – | 2.77 µM (inactive) | > 38.1 µM (inactive) | 25.2 µM (inactive) | > 100 µM (inactive) | 20.9 µM (inactive) | > 54.8 µM (inactive) | 12.2 µM (inactive) | 5.14 µM (inactive)
CCOC1NC(=O)Oc2cc3ccccc3cc21 (configuration not stated) | 31.3 µM (inactive) | 40.6 µM (inactive) | 60.5 µM (inactive) | 29.6 µM (inactive) | 95.9 µM (inactive) | 30.2 µM (inactive) | > 100 µM (inactive) | > 100 µM (inactive) | 48.6 µM (inactive) | > 100 µM (inactive) | > 100 µM (inactive) | – | > 100 µM (inactive) | > 100 µM (inactive) | 36.5 µM (inactive) | – | > 100 µM (inactive) | 44.1 µM (inactive) | > 100 µM (inactive) | > 100 µM (inactive)
O=[N+]([O-])c1ccc(/N=N\c2c(O)c(S(=O)(=O)O)cc3cc(S(=O)(=O)O)ccc23)cc1 | > 100 µM (inactive) | > 100 µM (inactive) | > 100 µM (inactive) | > 100 µM (inactive) | > 100 µM (inactive) | 27 µM (inactive) | > 100 µM (inactive) | > 100 µM (inactive) | > 100 µM (inactive) | > 100 µM (inactive) | > 100 µM (inactive) | > 100 µM (inactive) | > 100 µM (inactive) | > 100 µM (inactive) | > 100 µM (inactive) | > 100 µM (inactive) | > 100 µM (inactive) | > 100 µM (inactive) | > 100 µM (inactive) | –
Nc1ccc(-c2nc3ccc(F)cc3s2)cc1Cl | – | > 100 µM (inactive) | 37 µM (inactive) | 24.9 µM (inactive) | > 100 µM (inactive) | 0.126 µM (active) | > 100 µM (inactive) | > 100 µM (inactive) | > 65.5 µM (inactive) | > 100 µM (inactive) | – | > 78.5 µM (inactive) | > 100 µM (inactive) | > 82 µM (inactive) | 5.57 µM (inactive) | > 84.1 µM (inactive) | > 70.5 µM (inactive) | > 70.6 µM (inactive) | 32.9 µM (inactive) | > 41.5 µM (inactive)
Cc1occc1/C(S)=N\c1ccc(Cl)c(C(=O)OCC2CC2)c1 | 28.4 µM (inactive) | 18.8 µM (inactive) | 23.9 µM (inactive) | 30.8 µM (inactive) | 23.1 µM (inactive) | 52.2 µM (inactive) | 22.3 µM (inactive) | 26.7 µM (inactive) | 39.9 µM (inactive) | > 100 µM (inactive) | > 100 µM (inactive) | 5.81 µM (inactive) | 58.5 µM (inactive) | 58.6 µM (inactive) | 20.7 µM (inactive) | 47.4 µM (inactive) | 21.9 µM (inactive) | 22.7 µM (inactive) | 46.9 µM (inactive) | –
